Measured values from patent US10478574B2, “Nasal administration” (OptiNose AS, priority 2006, dated 2019).

How the values were obtained:
[1] = Blood plasma pharmacokinetics of midazolam for three administration systems (Example #1); conditions: for Cl (obs) / Vz (obs): not corrected for bio-availability; for bio-availability: mean (95% CI); for AUC(0-t): AUClast
Description: In this study, twelve healthy subjects, 4 male and 8 female, were studied.
In separate sessions, the subjects received 3.4 mg of midazolam by one of three different administration systems, these being: • (i) an intravenous administration system in which a midazolam formulation was intravenously administered; • (ii) a conventional nasal spray administration system in which a midazolam formulation was conventionally nasally administered using a spray pump as supplied by Ing Erich Pfeiffer GmbH (Radolfsee, Germany) which is specified to generate a liquid spray with a mean particle size of 43 μm, with 100 μl of the formulation being delivered to each nostril; and • (iii) the bi-directional administration system of the first-described embodiment, and incorporating the same spray pump as the conventional nasal spray administration system, in which a midazolam formulation was nasally administered, with 100 μl of the formulation being delivered to each nostril.
Each study session was six hours in duration, and the sessions were separated by at least one week.
The intravenous formulation was a commercial midazolam HCl formulation (1 mg/ml (free base)) as supplied by Alpharma Inc (New Jersey, USA).
The nasal formulation was an aqueous solution containing midazolam base (1.7% w/v), sulfobutylether-β-cyclodextrin sodium salt with a molar substitution of 6.2 (Captisol®) (14% w/v) as supplied by CyDex Inc (Kansas, USA), hydroxypropyl methylcellulose (0.1% w/v), benzalkonium chloride (0.02% w/v), ethylene diaminetetraacetic acid (0.1% w/v) and phosphoric acid (0.73% w/v). The pH of the formulation was adjusted to a pH of between 4.20 and 4.35 with sodium hydroxide.
Venous blood samples, each having a volume of 9 ml, were drawn just prior to administration and at 2, 5, 10, 15, 20, 25, 30, 35, 45, 60, 90, 120, 240 and 360 minutes after administration, in order to allow for a determination of the blood plasma concentration of midazolam.
The blood plasma concentration of midazolam was determined according to Martens et al.
Samples, spiked with diazepam as an internal standard, were alkalised and extracted by toluene containing 0.1% w/v amyl alcohol. The resulting organic phase for each of the samples was then evaporated and the residue for each of the samples was derivatized with TBDMSTFA (/tert/-Butyldimethylsilyl)-N-methyltrifluoroacetamide with 1% w/v tert-butyldimethylsilyllchloride) at 60 °C. After the excess of TBDMSTFA was evaporated, the residue for each of the samples was dissolved in ethyl acetate and analyzed in a gas chromatograph, in this embodiment an HP 5890 gas chromatograph equipped with an HP 5972 mass-spectrometry detector as supplied by Hewlett Packard Inc (USA). The midazolam and diazepam components were quantified by the mass ions 310 and 256, respectively.
In this study, the midazolam clearance, the volume of distribution, the elimination rate, the maximum plasma concentration Cmax, the time maximum plasma concentration Tmax, and the area under the curve AUC (linear trapezoidal rule) were calculated by computerized curve fitting using the Win-Nonlin Standard 4.1 as supplied by Pharsight Corporation (California, USA). The systemic clearance (Cl)=dose/AUCiv, the apparent nasal clearances (Cln)=dose/AUCn, and the respective bioavailabilities (Fx)=(AUCx/dosey)/(AUCy/dosex) were determined from the calculated values.
In the results, the data is given as a median (min-max) or a mean (95% confidence interval (CI)). Regression analysis and ANOVA were used as appropriate. A bi-variate correlation (Pearson) was used to determine associations between variables. A paired sample t-test was used for group comparisons.

[2] = Subjective sedation score on numeric rating scale (NRS) 0-10 after midazolam (Example #1); assay type: in vivo, human
Description: Subjective sedation was scored by a numeric rating scale (NRS) 0-10, where 0 is fully awake and 10 is falling asleep or as tired as you can imagine at 0, 2, 5, 10, 15, 20, 25, 30, 35, 45, 60, 90, 120 and 360 minutes after administration.

[3] = bi-directional nasal administration system, 3.4 mg, mean
[4] = both, human, plasma, inhaled or intranasal, 3.4 mg, bi-directional nasal administration system, mean
[5] = both, human, plasma, inhaled or intranasal, 3.4 mg, conventional nasal spray administration system, mean
[6] = both, human, plasma, iv, 3.4 mg
[7] = both, human, plasma, iv, 3.4 mg, intravenous administration system, mean
[8] = conventional nasal spray administration system, 3.4 mg, mean

Cc1ncc2n1-c1ccc(Cl)cc1C(c1ccccc1F)=NC2 [midazolam]
AUCinf [1, 3]: 5364 ng·min/mL
Cl (obs) [1, 3]: 589 mL/min
Vz (obs) [1, 3]: 98551 mL
bio-availability ([1]; bi-directional spray administration system vs intravenous): 0.69 (0.57, 0.81)
AUC(0-inf) ([1]; both, human, plasma, inhaled or intranasal, 3.4 mg): 87.8 ng·h/mL
AUC(0-t) [1, 4]: 76.9 ng·h/mL
AUC(0-t) [1, 5]: 77.1 ng·h/mL
Cmax [1, 4]: 44 ng/mL
Cmax [1, 5]: 53 ng/mL
half-life ([1]; both, human, plasma, inhaled or intranasal, 3.4 mg, T1/2, bi-directional nasal administration system, mean): 1.98 h
half-life ([1]; both, human, plasma, inhaled or intranasal, 3.4 mg, T1/2, conventional nasal spray administration system, mean): 1.9 h
Tmax [1, 4]: 0.267 h
Tmax [1, 5]: 0.25 h
AUC(0-inf) [1, 6]: 136 ng·h/mL
Vd [1, 6]: 65.4 L
clearance [1, 6]: 451 mL/min
AUC(0-t) [1, 7]: 122 ng·h/mL
Cmax [1, 7]: 152 ng/mL
half-life ([1]; both, human, plasma, iv, 3.4 mg, T1/2, intravenous administration system, mean): 1.73 h
Tmax [1, 7]: 0.0417 h
Cl (obs) [1, 8]: 551 mL/min
Vz (obs) [1, 8]: 90691 mL
bio-availability ([1]; conventional spray administration system vs intravenous): 0.68 (037, 0.80)
CNS effect (sedation score as a function of blood plasma concentration) ([2]; bi-directional administration system compared with conventional nasal spray): substantially greater CNS effect than the conventional nasal spray administration system
sedation scores ([2]; bi-directional administration system compared with intravenous, 3.4 mg, median NRS): equivalent to those of the intravenous administration system
onset of action ([2]; bi-directional administration system compared with the other systems, 3.4 mg): considerably faster than the conventional nasal spray administration system
ratio of peak CNS effect to Cmax relative to intravenous administration ([2]; bi-directional administration system, 3.4 mg): about 3.5 times
